Values quoted from earlier work as cited in patent publication US20040157925A1, “Stable pharmaceutical composition of pravastatin” (priority 2001, published 2004).

Settings: pH 3 or less as found in the stomach; degrades to lactone and 3-a-hydroxy-isopravastatin

- Stability in a low pH environment: very unstable
SMILES: CC[C@H](C)C(=O)O[C@H]1C[C@H](O)C=C2C=C[C@H](C)[C@H](CC[C@@H](O)C[C@@H](O)CC(=O)O)[C@H]21 [Pravastatin sodium, (+)-(3R, 5R)-3,5-dihydroxy-7-[(1 S,2S,6S, 8S, 8aR)-6-hydroxy-2-methyl-8-[(S)-2-methylbutyryloxy]-1,2,6,7,8,8a-hexahydro-1-naphthyl]heptanoate]
